Measured values: US8361959B2, “Spiro-imidazolone derivatives as glucagon receptor antagonists” (Merck Sharp & Dohme Corp., priority 2008, dated 2013)

Target: T1, recombinant human glucagon receptor (Homo sapiens, UniProt P47871)
T1 construct: expressed in transfected cells; host or cells: CHO (Chinese hamster ovary) cells
Experiment: Inhibition of glucagon-stimulated intracellular cAMP assay
Format: cell-based
Conditions: CHO cells expressing recombinant human glucagon receptor, stimulated with 300 pM glucagon, LANCE cAMP
Protocol: Inhibition of Glucagon-Stimulated Intracellular cAMP Assay
Chinese hamster ovary (CHO) cells expressing the recombinant human glucagon receptor were harvested with the aid of non-enzymatic cell dissociation solution (GIBCO 13151-014). The cells were then pelleted and suspended in the stimulation buffer (1×HBSS, 5 mM Hepes, 0.1% BSA, pH7.4 in presence of complete protease inhibitor and phosphodiesterase inhibitor). The adenylate cyclase assay was conducted following the LANCE cAMP Kit (Perkin Elmer, AD0262) instructions. Briefly, cells were preincubated with anti-cAMP antibody in the stimulation buffer with a final concentration of 3% DMSO for 30 minutes and then stimulated with 300 pM glucagon for 45 minutes. The reaction was stopped by incubating with the detection buffer containing Europium chelate of the Eu-SA/Biotin-cAMP tracer for 20 hours. The fluorescence intensity emitted from the assay was measured at 665 nm using PheraStar instruments. […] Standard cAMP concentrations were conducted concurrently for conversion of fluorescence signal to cAMP level. Data was analyzed using GraphPad Prism. IC50 values were calculated using non-linear regression analysis assuming single site competition. […] Some of the compounds of the invention shown in the examples measured less than about 5 μM in this assay; other examples measured less than about 500 nM; others less than about 100 nM. […]

T1 sequence (P47871 26-477): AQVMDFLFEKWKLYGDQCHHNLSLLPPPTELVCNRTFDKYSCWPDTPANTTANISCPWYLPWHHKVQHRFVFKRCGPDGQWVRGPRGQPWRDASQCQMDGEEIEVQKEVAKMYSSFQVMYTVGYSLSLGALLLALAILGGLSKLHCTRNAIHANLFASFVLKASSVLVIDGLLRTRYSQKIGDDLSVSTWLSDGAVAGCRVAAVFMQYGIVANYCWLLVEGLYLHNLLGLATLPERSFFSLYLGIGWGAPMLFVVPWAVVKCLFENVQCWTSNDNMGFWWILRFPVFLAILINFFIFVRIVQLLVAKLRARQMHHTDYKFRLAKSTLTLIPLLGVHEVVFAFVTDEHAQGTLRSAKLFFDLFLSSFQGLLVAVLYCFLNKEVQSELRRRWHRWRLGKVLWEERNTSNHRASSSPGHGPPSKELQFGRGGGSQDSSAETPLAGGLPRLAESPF

| IC50 [nM] | SMILES |
| --- | --- |
| 452 | CCC[C@H](c1ccc(C(=O)NCc2nn[nH]n2)cc1)N1C(=O)C(c2cccc(Cl)c2)=NC12CCC(C(C)(C)C)CC2 (some centres unmarked) [Example 1.156] |
| 57 | CC(C)(C)C1CCC2(CC1)N=C(c1ccc(F)cc1)C(=O)N2[C@@H](c1ccc(C(=O)NCCC(=O)O)cc1)C1CC1 (some centres unmarked) [Example 1.212] |
